Details of series [1]: method as in earlier work. The note with it: cited from earlier work.
The nature of series [2]: in vitro. The note with it: for Jmax: 80% saturated solution in PBS, 6 h; for Jmax / Papp at 6 h / recovery: mean, n = 5–6; for Papp at 6 h / recovery: female, Holstein Friesian, bovine; for Papp at 6 h: 10^-6 Papp. On the procedure: The skin was obtained from bovine udders, all of which were harvested from Holstein Friesian cows which died at a slaughterhouse for food production, and the cleaned skin samples were stored at - 20°C until use. After thawing at room temperature split skin samples with a thickness of 600 μm ± 50 μm were produced using an electrical microtome (Zimmer, Eschbach, Germany), whereby damaged skin samples were excluded from the study.
Prior to the experiment split skin samples with appropriate size of 2 x 2 cm were incubated in phosphate buffered saline (PBS) for 30 minutes. They were placed on a styropor panel and fixed with needles beyond the subsequent diffusion area of the skin samples before the microneedle rollers were rolled in four axes radial over the skin surface (Figure 1 C).
The diffusion experiments were performed in Franz-type diffusion cells obtained from PermeGear (Riegelsville, PA, USA) with a receptor chamber of approximately 12 ml and a diffusion area of approximately 1.77 cm². Sonicated PBS was used as receptor fluid. […] The donor chambers were covered with parafilm® (American Can Company, Baltimore, USA) and were checked for precipitation of the compounds during the whole experiment. Aliquots were taken from the receptor fluid and replaced by the same amount of fresh PBS at 0, 0.5, 1, 2, 4, and 6 hours. Each treatment (untreated control, 200 μm microneedle, and 300 μm microneedle) was performed in duplicate per animal (n = 6).
The receptor fluid samples (100 μl) were analysed by high-performance liquid-chromatography, the methodology of which has derived from recent studies. […] The separation took place on a reversed phase column (LiChroCART 125–4, LiChrospher 100 RP-18e, 5 μm (Merck, Darmstadt, Germany)), which was maintained at 40°C.
The linear part of the gradient of the permeation curve (time vs. concentration in the receptor fluid) represents the maximum flux Jmax (μg/cm²/h) and is employed to calculate the apparent permeability coefficient Papp (cm/s) according to Niedorf et al. 2008 [23]. Differences between control samples and pretreated skin samples were evaluated by Friedman test followed by Dunn´s multiple comparison test (GraphPad Prism 4.01 (GraphPad Software Inc., San Diego, USA). A 0.05 significance level was adopted.

On the set-up of series [3]: method as in PMID 20624460. The note with it: microneedle treated skin, in vitro; cited from earlier work.
[4] abbreviates: 200 μm microneedle pretreatment.
Setting [5] is: 300 μm microneedle pretreatment.
Where [6] appears, read: 300 μm microneedle pretreatment, * = p<0.05 versus control.

Like-named read-outs stand apart in the source and are kept apart here.

As to `O=C(O)Cc1ccccc1Nc1c(Cl)cccc1Cl` [Diclofenac], the logKo/w in series [1] was 0.7; in series [1] (listed as diclofenac), less than 1. Further, the values for the Jmax in series [2] (setting [4]), in series [2] (setting [5]) and in series [2] (untreated control skin) were 8.75 μg/cm²/h, 11.55 μg/cm²/h and 1.72 μg/cm²/h, respectively. The “Increase of maximum flux (Jmax) and Papp-value versus untreated skin” value (shortened to “Increase of maximum flux”) in series [2] (setting [5]) is not above 7 fold. The Papp at 6 h in series [2] (setting [6]) came out at 1.24 ×10⁻⁶ cm/s; in series [2] (untreated control skin), 0.18 ×10⁻⁶ cm/s. Moreover, the recovery in series [2] (setting [4]) is 3.17%; in series [2] (setting [5]), 3.54%; in series [2] (untreated control skin) it was 0.49%.

Take `CC(C)Cc1ccc(C(C)C(=O)O)cc1` (stereo not drawn) [Ibuprofen, ibuprofen]: in series [2] (setting [4]), the “Higher flux through pretreated skin compared to untreated skin” value is reported as “twofold” and the recovery came out at 11.2%. Further, in series [2] (setting [5]), the “Higher flux through pretreated skin compared to untreated skin” value was “threefold”; the “Increase of maximum flux” value is “up to 3 fold”; the recovery came out at 17.8%. In series [2] (untreated control skin), this compound yielded a recovery of 6.76%.

With `CC(C(=O)O)c1cccc(C(=O)c2ccccc2)c1` (stereo not drawn) [Ketoprofen, ketoprofen], in series [2] (setting [4]), the “Higher flux through pretreated skin compared to untreated skin” value is reported as “twofold”, the Jmax was 2.36 μg/cm²/h, the Papp at 6 h stood at 0.28 ×10⁻⁶ cm/s and the recovery turned out to be 0.76%. Also, in series [2] (setting [5]), the “Higher flux through pretreated skin compared to untreated skin” value is recorded as “threefold”; the “Increase of maximum flux” value was “up to 3 fold”; the Jmax is recorded as 2.99 μg/cm²/h; the recovery was 0.96%. Also, the Papp at 6 h in series [2] (setting [6]) amounted to 0.35 ×10⁻⁶ cm/s. Also, in series [2] (untreated control skin), the Papp at 6 h was determined as 0.12 ×10⁻⁶ cm/s, the recovery is 0.3% and the Jmax is on record as 1.03 μg/cm²/h.

With `CC(=O)Oc1ccccc1C(=O)O` [acetylsalicylic acid], the Permeation enhancement entry in series [3] was “up to 2 times”.

In general, Papp refers to a coefficient for how fast a substance crosses the barrier.

Source of the values: article PMC3506268, “Microneedle pretreatment enhances the percutaneous permeation of hydrophilic compounds with high melting points” (BMC Pharmacology & Toxicology, 2012).
